From patent publication US20220242846A1, “ISOINDOLINONE COMPOUNDS” (Monte Rosa Therapeutics AG, priority 2019, published 2022)

biological target: GSPT1 (Homo sapiens, UniProt P15170+Q96SW2); assay: Immunofluorescence assay for GSPT1 degradation in CAL-51 cells; format: cell-based; set-up: CAL-51 cells were purchased from DSMZ (cat. Number ACC302); endogenous in cells; host or cells: CAL-51 (DSMZ ACC302); settings: GSPT1 degradation, compound treatment 6 hours, read-out: DC50
Procedure, shortened: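 CAL-51 cells on fibronectin-coated plates treated 6 h with compound (30 μM to 0.1 nM); fixed, stained with anti-GSPT1/Alexa-488, phalloidin and DAPI, imaged by high-content microscopy. Mean GSPT1 intensity per cell normalized to controls; DC50 by non-linear regression.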

Sequence of GSPT1 (P15170 whole entry): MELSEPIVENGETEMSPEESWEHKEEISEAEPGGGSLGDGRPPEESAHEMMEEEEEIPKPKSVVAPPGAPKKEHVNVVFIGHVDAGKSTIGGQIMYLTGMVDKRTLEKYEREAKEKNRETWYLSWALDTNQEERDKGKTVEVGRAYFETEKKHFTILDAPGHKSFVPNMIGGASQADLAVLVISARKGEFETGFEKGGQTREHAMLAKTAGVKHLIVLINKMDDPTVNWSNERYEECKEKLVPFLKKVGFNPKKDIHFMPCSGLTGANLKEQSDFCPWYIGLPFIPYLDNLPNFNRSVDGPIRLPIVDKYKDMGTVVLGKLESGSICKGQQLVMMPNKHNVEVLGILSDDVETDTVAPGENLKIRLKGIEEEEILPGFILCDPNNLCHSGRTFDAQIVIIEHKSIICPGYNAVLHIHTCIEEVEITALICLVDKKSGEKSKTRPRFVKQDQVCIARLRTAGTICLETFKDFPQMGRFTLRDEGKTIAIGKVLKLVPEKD
Sequence of GSPT1 (Q96SW2 whole entry): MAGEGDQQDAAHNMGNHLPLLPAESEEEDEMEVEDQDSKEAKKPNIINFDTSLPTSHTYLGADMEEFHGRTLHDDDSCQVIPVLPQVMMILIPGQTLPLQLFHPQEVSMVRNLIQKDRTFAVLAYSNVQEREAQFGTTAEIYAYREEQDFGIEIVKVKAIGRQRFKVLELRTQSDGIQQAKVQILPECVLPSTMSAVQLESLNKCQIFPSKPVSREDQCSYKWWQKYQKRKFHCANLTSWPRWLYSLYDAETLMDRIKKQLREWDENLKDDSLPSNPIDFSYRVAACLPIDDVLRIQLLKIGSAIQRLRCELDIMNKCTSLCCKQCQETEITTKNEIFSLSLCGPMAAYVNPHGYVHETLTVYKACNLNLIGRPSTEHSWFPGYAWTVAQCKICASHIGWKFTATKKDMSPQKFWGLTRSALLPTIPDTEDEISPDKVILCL
Sequence of GSPT1 (Q16531 2-1140 partner limits assumed): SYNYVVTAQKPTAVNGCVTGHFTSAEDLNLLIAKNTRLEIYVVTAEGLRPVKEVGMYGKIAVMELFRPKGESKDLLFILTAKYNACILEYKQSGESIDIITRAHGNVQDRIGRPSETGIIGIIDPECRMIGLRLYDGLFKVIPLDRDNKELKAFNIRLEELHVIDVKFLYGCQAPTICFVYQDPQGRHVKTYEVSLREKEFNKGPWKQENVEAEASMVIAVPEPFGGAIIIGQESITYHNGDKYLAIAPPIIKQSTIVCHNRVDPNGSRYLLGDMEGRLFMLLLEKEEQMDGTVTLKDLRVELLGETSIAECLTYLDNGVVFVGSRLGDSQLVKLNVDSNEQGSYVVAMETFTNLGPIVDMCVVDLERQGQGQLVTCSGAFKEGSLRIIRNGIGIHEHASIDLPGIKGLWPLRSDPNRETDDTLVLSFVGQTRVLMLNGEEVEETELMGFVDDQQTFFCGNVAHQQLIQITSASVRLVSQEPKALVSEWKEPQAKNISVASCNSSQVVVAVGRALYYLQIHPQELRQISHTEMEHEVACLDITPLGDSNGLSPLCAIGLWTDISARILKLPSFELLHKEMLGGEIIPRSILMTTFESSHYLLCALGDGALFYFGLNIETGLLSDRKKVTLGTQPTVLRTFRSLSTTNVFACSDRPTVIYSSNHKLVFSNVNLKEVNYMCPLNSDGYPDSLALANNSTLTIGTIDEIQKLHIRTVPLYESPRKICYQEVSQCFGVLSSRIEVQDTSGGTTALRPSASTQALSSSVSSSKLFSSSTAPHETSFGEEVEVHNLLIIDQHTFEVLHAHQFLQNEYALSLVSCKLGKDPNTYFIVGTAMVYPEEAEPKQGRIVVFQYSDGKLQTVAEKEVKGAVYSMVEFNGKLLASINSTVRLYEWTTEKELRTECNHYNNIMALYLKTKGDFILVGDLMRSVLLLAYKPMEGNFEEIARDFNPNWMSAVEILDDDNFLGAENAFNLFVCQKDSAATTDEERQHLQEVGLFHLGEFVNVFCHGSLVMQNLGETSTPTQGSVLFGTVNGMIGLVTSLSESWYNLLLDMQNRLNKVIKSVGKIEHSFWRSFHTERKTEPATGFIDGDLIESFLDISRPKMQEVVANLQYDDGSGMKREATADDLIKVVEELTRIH

DC50 [µM]	Structure (SMILES)
0.274	Cc1cc(C)c(NC(=O)NCc2ccc3c(c2)C(=O)N(C2CCC(=O)NC2=O)C3)cc1Cl (stereo not shown) [Compound 85]

same assay, conditions: compound treatment 6 hours, read-out: Code: activity for GSPT1 degradation (DC50)

Structure (SMILES)	DC50 [µM]
Cc1c(Cl)cc(NC(=O)NCc2ccc3c(c2)C(=O)N(C2CCC(=O)NC2=O)C3)cc1CN(C)C (stereo not shown) [Compound 75]	0.1 to 0.3
Cc1cc(C)c(NC(=O)NCc2ccc3c(c2)C(=O)N(C2CCC(=O)NC2=O)C3)cc1Cl (stereo not shown) [Compound 85]	0.1 to 0.3
Cc1ccc(NC(=O)NCc2ccc3c(c2)C(=O)N(C2CCC(=O)NC2=O)C3)c(Cl)c1Cl (stereo not shown) [Compound 87]	> 0.3
Cc1c(Cl)cc(NC(=O)NCc2ccc3c(c2)C(=O)N(C2CCC(=O)NC2=O)C3)cc1CC1COCOC1 (stereo not shown) [Compound 132]	≤ 0.1

Second part, the compound after the results:

DC50 [µM]	Structure (SMILES)
≤ 0.1	Cc1c(Cl)cc(NC(=O)NCc2ccc3c(c2)C(=O)N(C2CCC(=O)NC2=O)C3)cc1CN1CCOCC1 (stereo not shown) [Compound 82]
> 0.3	O=C1CCC(N2Cc3ccc(CNC(=O)Nc4cccc(CN5CCOCC5)c4)cc3C2=O)C(=O)N1 (stereo not shown) [Compound 105]
